Measured values from doi:10.1101/2025.03.03.641193, “Trihydroxybenzaldoximes are redox cycling inhibitors of ThDP-dependent DXP synthase” (bioRxiv, 2025).
Where two headings read alike, the source gives them in different places.

Tests used:
R478A DXPS = target: T1, R478A DXPS (Escherichia coli, UniProt P77488, R478A); settings: EcR478A vs WT; cited from earlier work
T1 construct: made in house

DXPS = target: T2, DXPS (Escherichia coli, UniProt P77488); assay: NMR detection of chemical reduction by DXPS and substrates (LR 1H-15N HSQC); assay type: biochemical; settings: 500 μM
T2 construct: made in house
Experimental: In order to determine if 1 is reduced by the C2-α-carbanion on DXPS, we prepared the ^15N-labeled analog 8 aerobically in Tris pH 8 (to bias the oxidized form, Fig S7) and then transferred this mixture to the anaerobic chamber to minimize O2-mediated re-oxidation of 8 following reduction by the C2-α-carbanion (Fig S18). […] Reactions containing 8 (500 μM) were then initiated by the addition of DXPS (1 μM) and ^13C-labeled pyruvate (2 mM), in the presence or absence of 500 μM GAP (Fig 8B–E, S22–23). Samples were then quenched by boiling and vortexing before being transferred into degassed NMR tubes and sealed with rubber septa and parafilm to preclude reoxygenation. […] Further evidence supporting Model 2 in which 1 induces LThDP decarboxylation and promotes substrate wasting, was obtained by detection of products using 1D ^1H-NMR which selectively detects H{^13C} and H3{^13C} spectra via a proton multiplicity filter (Fig 8, S23–24). […] Production of DXP relative to acetate in the presence of D-GAP was reduced in the presence of 8 (Fig S24), consistent with a mechanism in which 1 competes with GAP as an acceptor and in agreement with the previously characterized competitive mechanism of inhibition with respect to D-GAP.[32]
Reaction buffer (50 mM Tris pH 8, 2 mM MgCl2, 100 mM NaCl, 1 mM ThDP, 10% D2O) was prepared aerobically. Oxime 8 (500 μM) was added, and the mixture was incubated at 4 °C for 30 min. Reaction mixtures were then brought into the anaerobic chamber and allowed to deoxygenate ~2 hrs. Reactions were initiated by addition of 1 μM DXPS with 2 mM sodium pyruvate-^13C3 or 2 mM sodium pyruvate-^13C3 and 500 μM GAP. Reaction mixtures were incubated at 25 °C for 1 hr. Reactions were quenched by boiling for 5 min at 95 °C followed by vortexing for 15 seconds. The quenched mixtures were transferred to labeled NMR tubes which were sealed with rubber septa and parafilm prior to removal from the chamber to exclude oxygen once removed from the chamber. 2D Multiple Bond Long Range (LR) ^1H-^15N-HSQC and 1D ^1H detected H{^13C} and H3{^13C} spectra via a proton multiplicity filter which selects for ^13C nuclei attached to an odd number of protons were acquired on a Bruker Avance NEO 600 MHz spectrometer equipped with a TCI cryogenic probe equipped with z-gradients with a cryo-cooled ^13C preamplifier, resulting in high sensitivity for ^13C detection. Spectra were acquired at 600 MHz (^1H), 150 MHz (^13C), and 61 MHz (^15N) at 25 °C. Parameters for various categories of spectra are as follows: (LR ^1H-^15N HSQC): 16 scans and 150 ms acquisition time (t2) per FID and a ^1H spectral width of 15.1376 ppm; since the chemical shifts of N^R (δ 335) and N^O (δ 374) are separated by ~ 40 ppm, data collection times were optimized by positioning the ^15N carrier at 354 ppm and using an ^15N spectral width of 25 ppm and an acquisition time of 13 ms along ^15N (t1); with a 1.5 s relaxation delay between successive scans, the total data collection period per 2D spectrum was 20 minutes. ^1H detected H{^13C} and H3{^13C} filtered 1D spectra: 200 ms acquisition time/FID, and a 5s relaxation day between successive scans, 1.5 minutes per spectrum. Controls were also prepared in which reactions were initiated by addition of 1 μM DXPS with no substrates, as well as 2 mM ^13C-labeled pyruvate + 500 μM GAP with DXPS dialysis buffer in place of enzyme. A “mixed” redox state control of 1 (500 μM) was prepared aerobically in 50 mM HEPES pH 8 with 10% D2O.

EcDXPS [1] = target: T3, EcDXPS (Escherichia coli, UniProt P77488); assay: DXPS-IspC coupled assay, aerobic, WT EcDXPS; assay type: biochemical, E. coli; settings: for MOI varying D-GAP / MOI varying pyruvate: WT EcDXPS, aerobic
T3 construct: made in house
Experimental: Inhibitory activity of compounds against DXPS were monitored via a continuous spectrophotometric coupled assay with DXPS and IspC as previously described.[41],[42] Briefly, Reaction mixtures containing HEPES (100 mM, pH 8.0), MgCl2 (2 mM), NaCl (5 mM), ThDP (1 mM), BSA (1 mg/mL), DXPS (125–500 nM), IspC (1.7 μM), NADPH (160 μM), DMSO (5%, v/v), and inhibitor (0–200 μM) were preincubated at 25 °C (or chamber temperature 25–30 °C) for 5 min. Enzymatic reactions were initiated via the addition of 20 μL of a 10x substrate mix for a final well volume of 200 μL. Reactions were performed in triplicate unless otherwise noted. See the following sections for details and modifications.
When varying pyruvate (0–500 μM), GAP was maintained at 50 μM (3 mM for R478A). When varying GAP (0–500 μM), pyruvate was maintained at 500 μM. The following [DXPS] were used when varying 1: WT EcDXPS, R478A, H431A, D427A (200 nM), R99A (500 nM), WT DrDXPS, WT PaDXPS (150 nM). […] Reactions were incubated and initiated as described above. Immediately following initiation, NADPH depletion was monitored at 340 nm at 25 °C for 7–10 min with a 14–20 second time interval. Initial velocities of DXP formation were determined from the linear portion of the NADPH decay. […] Initial velocities were plotted vs. substrate concentration, and the data were fit to equation 1 (mixed model), 2 (competitive), or 3 (uncompetitive) based on the calculated α value and goodness of fit in GraphPad Prism. Reported standard errors of the mean for Kis are calculated from three replicates.

EcDXPS [2] = target: T3, EcDXPS; settings: cited from earlier work; for inhibitory activity against DXPS: source not stated at the place, probably ref 32

CC(=O)P(=O)(O)OCCc1cn([C@H](Cc2ccccc2)C(=O)O)nn1 [D-PheTrAP, D-phenylalanine triazol acetyl phosphonate]
fold loss in potency on EcR478A (R478A DXPS): > 30 fold

O/[15N]=C/c1cc(O)c(O)cc1O [compound 8, ^15N-labeled (E)-2,4,5-Trihydroxybenzaldehyde oxime]
redox state after incubation (LR 1H-15N HSQC) (DXPS; DXPS 1 μM + pyruvate 2 mM + D-GAP 500 μM, anaerobic): readily reduced
redox state after incubation (LR 1H-15N HSQC) (DXPS; DXPS 1 μM + pyruvate 2 mM, no GAP, anaerobic): fully reduced
redox state after incubation (LR 1H-15N HSQC) (DXPS; DXPS 1 μM, no substrates): maintained mostly in the oxidized form
redox state after incubation (LR 1H-15N HSQC) (DXPS; ascorbate 5 mM control): Total reduction
redox state after incubation (LR 1H-15N HSQC) (DXPS; pyruvate 2 mM + D-GAP 500 μM, no DXPS): Some reduction

CN/N=C/c1cc(O)c(O)cc1O [compound 4]
MOI varying D-GAP (EcDXPS [1]): mixed
MOI varying pyruvate (EcDXPS [1]): uncompetitive
potency against DXPS (EcDXPS [2]; determined in the presence of ascorbate): lacking measurable potency

CO/N=C/c1cc(O)c(O)cc1O [compound 2]
MOI varying pyruvate (EcDXPS [2]; footnote a): Noncompetitive
Ki (EcDXPS [2]; vary pyruvate): 15.6 ± 0.7 µM

CO/N=C/c1cc(O)ccc1O [compound 6]
inhibitory activity against DXPS (EcDXPS [2]): lack of potency

CO/N=C/c1ccc(O)c(O)c1 [compound 5]
inhibitory activity against DXPS (EcDXPS [2]): lack of potency

N/N=C/c1cc(O)c(O)cc1O [compound 3, (E,Z)-5-(hydrazineylidenemethyl)benzene-1,2,4-triol]
Ki (EcDXPS [1]): 17.5 ± 0.6 µM
MOI varying D-GAP (EcDXPS [1]): competitive
MOI varying pyruvate (EcDXPS [1]): uncompetitive
